{
  "source": "patent US20140148484A1",
  "about": "“PYRAZOLE COMPOUNDS FOR TREATING HAIRLOSS” (Boehringer Ingelheim International GmbH, priority 2012, published 2014)",
  "data": [
    {"system": "hair growth in mice", "experiment": "not given", "conditions": "applied topically to the skin of wild-type mice; cited from earlier work", "values": [
      {"smiles": "CCCCC[C@H](O)/C=C/[C@H]1C(=O)C[C@H](O)[C@@H]1C/C=C\\CCCC(=O)O", "note": "[PGD2, prostaglandin D2]", "hair growth": "inhibited hair growth"}
    ]},
    {"molecular_target": "T1, human CRTH2 receptor (Homo sapiens, UniProt Q9Y5Y4)", "T1 construct": "host or cells: CHO-K1 (CHO-K1-hCRTH2 cells); membranes prepared in house from the purchased cell line", "T1 sequence (Q9Y5Y4 1-395)": "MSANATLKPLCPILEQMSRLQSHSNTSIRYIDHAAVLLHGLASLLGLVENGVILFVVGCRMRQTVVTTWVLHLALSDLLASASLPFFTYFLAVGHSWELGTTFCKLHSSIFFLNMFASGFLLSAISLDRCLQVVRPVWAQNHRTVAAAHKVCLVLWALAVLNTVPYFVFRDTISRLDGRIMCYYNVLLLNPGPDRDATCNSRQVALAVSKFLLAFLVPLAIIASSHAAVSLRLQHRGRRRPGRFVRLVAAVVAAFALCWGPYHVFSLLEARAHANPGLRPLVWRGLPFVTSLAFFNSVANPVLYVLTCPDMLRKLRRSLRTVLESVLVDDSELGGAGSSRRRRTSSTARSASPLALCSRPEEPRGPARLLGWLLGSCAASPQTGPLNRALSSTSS", "experiment": "Human CRTH2 receptor membrane radioligand binding assay (SPA, [3H]-PGD2)", "conditions": "displacement of [3H]-PGD2 (1 nM) from CHO-K1-hCRTH2 cell membranes, 3 h room temperature", "procedure,_shortened": "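SPA binding using membranes from CHO-K1 cells expressing human CRTH2 (0.5–10 μg protein/well) with 1 nM [3H]-PGD2 in Tris pH 7.4 buffer with 0.1% BSA, 3 h at room temperature. Non-specific binding defined with 1 μM PGD2 or 10 μM CAY10471; inhibition calculated from specific binding.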", "units": {"Ki": "nM"}, "values": [
      {"smiles": "CCc1nn(Cc2ccc(/C=C/c3ccc(Cl)cc3)cc2)c(CC)c1CC(=O)O", "note": "[Example 12.3]", "Ki": 12.3},
      {"smiles": "Cc1nn(Cc2ccc(OCc3ccc(Cl)c(Cl)c3)cc2)c(C)c1CC(=O)O", "note": "[Example 13.1]", "Ki": 30},
      {"smiles": "Cc1nn(Cc2ccc(OCc3ccc(C(F)(F)F)cc3)cc2)c(C)c1CC(=O)O", "note": "[Example 13.2]", "Ki": 1070},
      {"smiles": "Cc1cc(Cl)ccc1COc1ccc(Cn2nc(C)c(CC(=O)O)c2C)cc1", "note": "[Example 13.3]", "Ki": 619},
      {"smiles": "Cc1nn(Cc2ccc(OCc3ccccc3)cc2)c(C)c1CC(=O)O", "note": "[Example 13.4]", "Ki": 325},
      {"smiles": "Cc1nn(Cc2ccc(OCc3ccc(Cl)c(C(F)(F)F)c3)cc2)c(C)c1CC(=O)O", "note": "[Example 13.5]", "Ki": 36},
      {"smiles": "COc1ccc(COc2ccc(Cn3nc(C)c(CC(=O)O)c3C)cc2)cc1C(F)(F)F", "note": "[Example 13.6]", "Ki": 28.9},
      {"smiles": "CCc1nn(Cc2ccc(OCc3cc(Cl)cc(Cl)c3)cc2)c(CC)c1CC(=O)O", "note": "[Example 13.8]", "Ki": 15.5},
      {"smiles": "CCc1nn(Cc2ccc(OCc3cccc(Cl)c3)cc2)c(CC)c1CC(=O)O", "note": "[Example 13.9]", "Ki": 39.1},
      {"smiles": "CCc1nn(Cc2ccc(OCc3cccc(C(F)(F)F)c3)cc2)c(CC)c1CC(=O)O", "note": "[Example 13.10]", "Ki": 19.6},
      {"smiles": "CCc1nn(Cc2ccc(OCc3ccc(OC(F)(F)F)c(Cl)c3)cc2)c(CC)c1CC(=O)O", "note": "[Example 13.11]", "Ki": 48.8},
      {"smiles": "CCc1nn(Cc2ccc(OCc3ccc(OC)c(C(F)(F)F)c3)cc2)c(CC)c1CC(=O)O", "note": "[Example 13.12]", "Ki": 5},
      {"smiles": "CCc1nn(Cc2ccc(OCc3cccc(C)c3)cc2)c(CC)c1CC(=O)O", "note": "[Example 13.13]", "Ki": 49.9},
      {"smiles": "Cc1nn(Cc2ccc(COc3ccc(C(F)(F)F)cc3)cc2)c(C)c1CC(=O)O", "note": "[Example 14.1]", "Ki": 1530},
      {"smiles": "Cc1nn(Cc2ccc(COc3ccc(Cl)c(Cl)c3)cc2)c(C)c1CC(=O)O", "note": "[Example 14.2]", "Ki": 43},
      {"smiles": "Cc1nn(Cc2ccc(COc3ccccc3)cc2)c(C)c1CC(=O)O", "note": "[Example 14.3]", "Ki": 742},
      {"smiles": "Cc1nn(Cc2ccc(C(C)Oc3ccc(Cl)c(Cl)c3)cc2)c(C)c1CC(=O)O", "note": "(stereo not drawn) [Example 14.4]", "Ki": 29},
      {"smiles": "Cc1nn(Cc2ccc(C(C)Oc3ccc(C(F)(F)F)cc3)cc2)c(C)c1CC(=O)O", "note": "(stereo not drawn) [Example 14.5]", "Ki": 253},
      {"smiles": "Cc1nn(Cc2ccc(C(C)Oc3ccccc3)cc2)c(C)c1CC(=O)O", "note": "(stereo not drawn) [Example 14.6]", "Ki": 428},
      {"smiles": "Cc1nn(Cc2ccc(C(O)Cc3ccccc3)cc2)c(C)c1CC(=O)O", "note": "(stereo not drawn) [Example 15.1]", "Ki": 785},
      {"smiles": "Cc1nn(Cc2ccc(C(=O)Cc3ccccc3)cc2)c(C)c1CC(=O)O", "note": "[Example 15.2]", "Ki": 552},
      {"smiles": "Cc1nn(Cc2ccc(CSc3ccc(C(F)(F)F)cc3)cc2)c(C)c1CC(=O)O", "note": "[Example 16.1]", "Ki": 992},
      {"smiles": "Cc1nn(Cc2ccc(C[S+]([O-])c3ccc(C(F)(F)F)cc3)cc2)c(C)c1CC(=O)O", "note": "(stereo not drawn) [Example 16.2]", "Ki": 324},
      {"smiles": "Cc1nn(Cc2ccc(CS(=O)(=O)c3ccc(C(F)(F)F)cc3)cc2)c(C)c1CC(=O)O", "note": "[Example 16.3]", "Ki": 2290},
      {"smiles": "Cc1nn(Cc2ccc(CSc3ccc(Cl)c(Cl)c3)cc2)c(C)c1CC(=O)O", "note": "[Example 16.4]", "Ki": 875},
      {"smiles": "Cc1nn(Cc2ccc(C[S+]([O-])c3ccc(Cl)c(Cl)c3)cc2)c(C)c1CC(=O)O", "note": "(stereo not drawn) [Example 16.5]", "Ki": 325},
      {"smiles": "Cc1nn(Cc2ccc(CS(=O)(=O)c3ccc(Cl)c(Cl)c3)cc2)c(C)c1CC(=O)O", "note": "[Example 16.6]", "Ki": 853},
      {"smiles": "CCc1nn(C(C)c2ccc(NC(=O)c3ccc(C(F)(F)F)cc3)cc2)c(CC)c1CC(=O)O", "note": "(stereo not drawn) [Example 17.1]", "Ki": 0.1},
      {"smiles": "CCc1nn(C(C)c2ccc(C(=O)Nc3ccc(C(F)(F)F)cc3)cc2)c(CC)c1CC(=O)O", "note": "(stereo not drawn) [Example 17.2]", "Ki": 4.3},
      {"smiles": "Cc1nn(Cc2ccc(NC(=O)c3ccc(Cl)c(Cl)c3)cn2)c(C)c1CC(=O)O", "note": "[Example 18.1]", "Ki": 1.6},
      {"smiles": "Cc1nn(Cc2ccc([S+]([O-])Cc3ccc4ccccc4c3)cc2)c(C)c1CC(=O)O", "note": "(stereo not drawn) [Example 19.1]", "Ki": 43.5},
      {"smiles": "Cc1nn(Cc2ccc([S+]([O-])Cc3ccc(Cl)c(Cl)c3)cc2)c(C)c1CC(=O)O", "note": "(stereo not drawn) [Example 19.2]", "Ki": 12},
      {"smiles": "CCc1nn(Cc2ccc([S+]([O-])Cc3ccc(Cl)c(Cl)c3)cc2)c(CC)c1CC(=O)O", "note": "(stereo not drawn) [Example 19.3]", "Ki": 12.2},
      {"smiles": "CCc1nn(Cc2ccc([S+]([O-])Cc3ccccc3)cc2)c(CC)c1CC(=O)O", "note": "(stereo not drawn) [Example 19.4]", "Ki": 48.8}
    ]},
    {"system": "explanted human hair follicles", "experiment": "not given", "conditions": "administration to explanted human hair follicles; cited from earlier work", "values": [
      {"smiles": "CCCCC[C@H](O)/C=C/[C@H]1C(=O)C[C@H](O)[C@@H]1C/C=C\\CCCC(=O)O", "note": "[PGD2, prostaglandin D2]", "hair growth": "inhibited hair growth"}
    ]}
  ]
}
